The results in this text go back to patent US20100137313A1 (ASTRAZENECA AB, priority 2008, published 2010).

Chain of S. pneumoniae Topoisomerase IV ATPase (ParE) (Q59961 whole entry): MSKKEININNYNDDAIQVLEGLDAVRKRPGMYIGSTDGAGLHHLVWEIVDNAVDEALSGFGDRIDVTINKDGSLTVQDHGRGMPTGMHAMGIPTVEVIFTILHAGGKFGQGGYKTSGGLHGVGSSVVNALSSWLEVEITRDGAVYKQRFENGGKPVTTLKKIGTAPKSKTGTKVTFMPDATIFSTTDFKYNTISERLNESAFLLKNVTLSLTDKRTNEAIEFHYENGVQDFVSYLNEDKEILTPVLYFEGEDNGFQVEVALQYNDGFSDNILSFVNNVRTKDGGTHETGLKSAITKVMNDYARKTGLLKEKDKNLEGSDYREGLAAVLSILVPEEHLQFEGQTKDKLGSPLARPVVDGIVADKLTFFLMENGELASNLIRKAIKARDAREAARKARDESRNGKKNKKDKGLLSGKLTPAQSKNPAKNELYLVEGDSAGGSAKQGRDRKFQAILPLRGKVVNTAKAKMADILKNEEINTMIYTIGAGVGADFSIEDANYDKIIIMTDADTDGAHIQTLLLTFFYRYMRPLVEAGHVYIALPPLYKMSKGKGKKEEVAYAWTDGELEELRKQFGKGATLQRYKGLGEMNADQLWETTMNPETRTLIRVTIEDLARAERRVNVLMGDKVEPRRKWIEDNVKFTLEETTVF

For the assay, the target named is S. pneumoniae Topoisomerase IV ATPase (ParE) (Streptococcus pneumoniae serotype 4, UniProt Q59961). The assay is described as follows: S. pneumoniae Topoisomerase IV ATPase inhibition. Conditions: values marked * are an average of two or more data points, read-out: % Inh (13 μM) of S. pneumoniae Topoisomerase IV ATPase. It counts as biochemical. Summed up:
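Phosphate-release ATPase assay: 1.25 nM ParE, 160 μM ATP, DNA-stimulated. Quench with malachite green/molybdate in 1 M HCl, read 650 nm; IC50 from 10-point dose series.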
In the case of `O=C(O)c1cc(-c2cnc(Nc3ccc(F)c(Cl)c3)nc2-n2ccc(C(F)(F)F)n2)cn(CCO)c1=O` [Example 1083, 5-(2-(3-Chloro-4-fluorophenylamino)-4-(3-(trifluoromethyl)-1H-pyrazol-1-yl)pyrimidin-5-yl)-1-(2-hydroxyethyl)-2-oxo-1,2-dihydropyridine-3-carboxylic acid], the inhibition at 13 µM came to 99%.
Under `COc1cc(Nc2ncc(-c3cccc(/C=C/C(=O)O)c3)c(-n3nc(C(F)(F)F)cc3C)n2)cc(OC)c1` [Example 616, (2E)-3-(3-{2-[(3,5-dimethoxyphenyl)amino]-4-[5-methyl-3-(trifluoromethyl)-1H-pyrazol-1-yl]pyrimidin-5-yl}phenyl)prop-2-enoic acid] stands 99%; under `O=C(O)/C=C/c1cccc(-c2cnc(Nc3ccc(F)c(Cl)c3)nc2N2CCN(C(=O)C3CC3)CC2)c1` [Example 287, (E)-3-(3-(2-(3-chloro-4-fluorophenylamino)-4-(4-(cyclopropanecarbonyl)-piperazin-1-yl)pyrimidin-5-yl)phenyl)acrylic acid], 97.2%.
Under `COc1ncc(-c2cnc(Nc3cc(C)cc(C)c3)nc2-n2ccc(C(F)(F)F)n2)cc1C(=O)NS(C)(=O)=O` [Example 898, 5-(2-(3,5-dimethylphenylamino)-4-(3-(trifluoromethyl)-1H-pyrazol-1-yl)pyrimidin-5-yl)-2-methoxy-N-(methylsulfonyl)nicotinamide] stands 100%; under `CCOC(=O)c1cncc(-c2cnc(Nc3ccc(F)c(Cl)c3)nc2NCc2cccnc2)c1` [Example 96, 5-{2-(3-Chloro-4-fluoro-phenylamino)-4-[(pyridin-3-ylmethyl)-amino]-pyrimidin-5-yl}-nicotinic acid ethyl ester], 62.2%; under `COCCNc1ncc(-c2cnc(Nc3ccc(F)c(Cl)c3)nc2-n2nc(C(F)(F)F)cc2C)cc1C(=O)O` [Example 1080, 5-(2-(3-Chloro-4-fluorophenylamino)-4-(5-methyl-3-(trifluoromethyl)-1H-pyrazol-1-yl)pyrimidin-5-yl)-2-(2-methoxyethylamino)nicotinic acid], 100%.
Under `Cn1cc(CNc2nc(Nc3ccc(F)c(Cl)c3)ncc2-c2cccc(/C=C/C(=O)O)c2)cn1` [Example 298, (E)-3-(3-(2-(3-chloro-4-fluorophenylamino)-4-((1-methyl-1H-pyrazol-4-yl)methylamino)pyrimidin-5-yl)phenyl)acrylic acid] stands 80.7%; under `COc1cc(C#N)cc(Nc2ncc(-c3cncc(C(=O)O)c3)c(-n3nc(C(F)(F)F)cc3C)n2)c1` [Example 733, 5-{2-[(3-cyano-5-methoxyphenyl)amino]-4-[5-methyl-3-(trifluoromethyl)-1H-pyrazol-1-yl]pyrimidin-5-yl}pyridine-3-carboxylic acid], 100%; under `O=C(O)c1cncc(-c2cnc(Nc3ccc(F)c(Cl)c3)nc2NCc2ccccn2)c1` [Example 222, 5-{2-(3-Chloro-4-fluoro-phenylamino)-4-[(pyridin-2-ylmethyl)-amino]-pyrimidin-5-yl]-nicotinic acid], 76.2%.
Consider `CC(C)(C)OC(=O)NCCCNc1nc(Nc2ccc(F)c(Cl)c2)ncc1-c1cncnc1` [Example 74, tert-butyl 3-(2-(3-chloro-4-fluorophenylamino)-5,5′-bipyrimidin-4-ylamino)propylcar-bamate], for which the inhibition at 13 µM amounted to 103%.
Under `Cc1cc(-c2nccs2)nn1-c1nc(Nc2ccc(F)c(Cl)c2)ncc1-c1cncc(C(N)=O)c1` [Example 537, 5-{2-[(3-chloro-4-fluorophenyl)amino]-4-[5-methyl-3-(1,3-thiazol-2-yl)-1H-pyrazol-1-yl]pyrimidin-5-yl}pyridine-3-carboxamide] stands 100%.
With `CCOC(=O)c1cncc(-c2cnc(Nc3ccc(F)c(Cl)c3)nc2N[C@@H]2CCOC2)c1` [Example 146, (R)-ethyl 5-(2-(3-chloro-4-fluorophenylamino)-4-(tetrahydrofuran-3-ylamino)pyrimidin-5-yl)nicotinate] the figure was 79.7%; with `COc1cc(Nc2ncc(-c3cnc(OC)c(-c4noc(=O)[nH]4)c3)c(-n3nc(C(F)(F)F)cc3C)n2)cc(OC)c1` [Example 975, 3-(5-(2-(3,5-dimethoxyphenylamino)-4-(5-methyl-3-(trifluoromethyl)-1H-pyrazol-1-yl)pyrimidin-5-yl)-2-methoxypyridin-3-yl)-1,2,4-oxadiazol-5(4H)-one], 100%.
Under `COc1ncc(-c2cnc(Nc3cccc(C(C)=O)c3)nc2-n2ccc(C(F)(F)F)n2)cc1C(=O)O` [Example 720, 5-{2-[(3-acetylphenyl)amino]-4-[3-(trifluoromethyl)-1H-pyrazol-1-yl]pyrimidin-5-yl}-2-methoxypyridine-3-carboxylic acid] stands 100%; under `Nc1ncc(-c2cnc(Nc3ccc(F)c(Cl)c3)nc2-n2ccc(C(F)(F)F)n2)cc1C(=O)O` [Example 1073, 2-Amino-5-(2-(3-chloro-4-fluorophenylamino)-4-(3-(trifluoromethyl)-1H-pyrazol-1-yl)pyrimidin-5-yl)nicotinic acid], 99%; under `COc1cc(Nc2ncc(-c3cc(C(=O)NS(C)(=O)=O)c(=O)n(C)c3)c(-n3nc(C(F)(F)F)cc3C)n2)cc(OC)c1` [Example 1026], 98%.
In the case of `O[C@H]1CC[C@H](Nc2nc(Nc3ccc(F)c(Cl)c3)ncc2-c2cncnc2)CC1` [Example 68, trans-4-[[2-[(3-chloro-4-fluorophenyl)amino]-5-pyrimidin-5-ylpyrimidin-4-yl]amino]cyclohexan-1-ol], the inhibition at 13 µM was found to be 72.9%.
Under `COCCN1CCN(c2nc(Nc3ccc(F)c(Cl)c3)ncc2-c2cncc(C(=O)O)c2)CC1` [Example 284, 5-(2-(3-chloro-4-fluorophenylamino)-4-(4-(2-methoxyethyl)piperazin-1-yl)pyrimidin-5-yl)nicotinic acid] stands 69.4%; under `Cc1cc(C)cc(Nc2ncc(-c3cccc(/C=C/C(=O)O)c3)c(N3CCOCC3)n2)c1` [Example 405, (E)-3-{3-[2-(3,5-Dimethyl-phenylamino)-4-morpholin-4-yl-pyrimidin-5-yl]-phenyl}-acrylic acid], 85%.
In the case of `CCNC(=O)c1cccc(-c2cnc(Nc3ccc(F)c(Cl)c3)nc2NCCCN(C)C)c1` [Example 361, 3-(2-(3-chloro-4-fluorophenylamino)-4-(3-(dimethylamino)propylamino)pyrimidin-5-yl)-N-ethylbenzamide], the inhibition at 13 µM was 94.8%.
Under `O=S1(=O)CCN(CCNc2nc(Nc3ccc(F)c(Cl)c3)ncc2-c2cncnc2)CC1` [Example 47, N^2-(3-chloro-4-fluorophenyl)-N^4-[2-(1,1-dioxo-1,4-thiazinan-4-yl)ethyl]-5-pyrimidin-5-ylpyrimidine-2,4-diamine] stands 74.8%; under `O=C(O)c1ccc(-c2cnc(Nc3ccc(F)c(Cl)c3)nc2-n2ccnc2)s1` [Example 1111, 5-[2-[(3-chloro-4-fluorophenyl)-amino]-4-imidazol-1-ylpyrimidin-5-yl]thiophene-2-carboxylic acid], 88%.
With `O=C(O)/C=C/c1cccc(-c2cnc(Nc3ccc(F)c(Cl)c3)nc2-n2cc(-c3ccccn3)cn2)c1` [Example 567, (2E)-3-(3-{2-[(3-chloro-4-fluorophenyl)amino]-4-[4-(pyridin-2-yl)-1H-pyrazol-1-yl]pyrimidin-5-yl}phenyl)prop-2-enoic acid] the figure was 100%; with `O=C(O)/C=C/c1cccc(-c2cnc(Nc3cc(F)cc(F)c3)nc2-n2ccc(C(F)(F)F)n2)c1` [Example 619, (2E)-3-(3-{2-[(3,5-difluorophenyl)amino]-4-[3-(trifluoromethyl)-1H-pyrazol-1-yl]pyrimidin-5-yl}phenyl)prop-2-enoic acid], 100%; with `O=C(O)/C=C/c1cccc(-c2cnc(Nc3ccc(F)c(Br)c3)nc2N2CCOCC2)c1` [Example 454], 92%.
Consider `CCOC(=O)/C=C/c1cccc(-c2cnc(Nc3ccc(F)c(Cl)c3)nc2NC(COC)COC)c1` [Example 173, (E)-ethyl 3-(3-(2-(3-chloro-4-fluorophenylamino)-4-(1,3-dimethoxypropan-2-ylamino)pyrimidin-5-yl)phenyl)acrylate], for which the inhibition at 13 µM turned out to be 34.7%.
With `OC1CCN(c2nc(Nc3ccc(F)c(Cl)c3)ncc2-c2cncnc2)CC1` [Example 60, 1-[2-[(3-chloro-4-fluorophenyl)amino]-5-pyrimidin-5-ylpyrimidin-4-yl]piperidin-4-ol] the figure was 72.3%; with `CN1CCN(c2nc(Nc3ccc(F)c(Cl)c3)ncc2-c2cccc(/C=C/C(=O)O)c2)CC1` [Example 301, (E)-3-(3-(2-(3-chloro-4-fluorophenylamino)-4-(4-methylpierazin-1-yl)pyrimidin-5-yl)phenyl)acrylic acid], 72.2%; with `CCNC(=O)c1ccc(-c2cnc(Nc3ccc(F)c(Cl)c3)nc2NCCCN(C)C)s1` [Example 367, 5-(2-(3-chloro-4-fluorophenylamino)-4-(3-(dimethylamino)propylamino)pyrimidin-5-yl)-N-ethylthiophene-2-carboxamide], 104%.
Regarding `Cc1cc(-c2nccs2)nn1-c1nc(Nc2ccc(F)c(Cl)c2)ncc1-c1cccc(/C=C/C(=O)O)c1` [Example 562, (2E)-3-(3-{2-[(3-chloro-4-fluorophenyl)amino]-4-[5-methyl-3-(1,3-thiazol-2-yl)-1H-pyrazol-1-yl]pyrimidin-5-yl}phenyl)prop-2-enoic acid], the inhibition at 13 µM stood at 100%.
With `CCOC(=O)c1cncc(-c2cnc(Nc3ccc(F)c(Cl)c3)nc2N2CCCC2)c1` [Example 147, ethyl 5-(2-(3-chloro-4-fluorophenylamino)-4-(pyrrolidin-1-yl)pyrimidin-5-yl)nicotinate] the figure was 65.4%.
